Reference: patent US11718622B2, “Heterocyclic adenosine receptor antagonists” (Exelixis, Inc., priority 2020, dated 2023)

Key:
[1] = biological target: Adenosine A2a (ADORA2A) receptor (Homo sapiens (Human), UniProt P29274); assay: ADORA2A Receptor Binding Assay; details: radioligand binding, membrane stock
Procedure: ADORA1A and ADORA2A Receptor Binding Assay
2 μL of each compound (test compounds, high control compound, low control compound) was transferred into individual wells of an assay plate. Also to each individual well, 98 μL of Adenosine A1a membrane stock (for ADORA1A Receptor Binding Assay) or Adenosine A2a membrane stock (for ADORA2A Receptor Binding Assay) was dispensed, followed by 100 μL of radio-labeled ligand. Plates were then sealed, and incubated at room temperature for 1 hour (for ADORA1A Receptor Binding Assay) or 2 hours (for ADORA2A Receptor Binding Assay). Unifilter-96 GF/C filter plates were pre-soaked with 50 μL of 0.3% PEI per well for at least 30 min at room temperature. When binding assays were completed, reaction mixtures were filtered through GF/C plates using a Perkin Elmer Filtermate Harvester, and then each plate was washed 4× with cold wash buffer. Filter plates were then dried for 1 hour at 50° C. After drying, the bottom of the filter plate wells was sealed using Perkin Elmer Unifilter-96 backing seal tape. 50 μL of Perkin Elmer Microscint 20 cocktail was then added, and the top of the filter plate was then sealed using Perkin Elmer TopSeal-A sealing film. ^3H trapped on the filter was counted using a Perkin Elmer MicroBeta2 Reader. Data analysis was performed using GraphPad Prism 5 software, and the “Inhibition [% Control]” was calculated using the following equation: % Inh=(1−Background subtracted Assay value/Background subtracted HC value)*100.

[2] = biological target: Adenosine A2B (ADORA2B) receptor (Homo sapiens (Human), UniProt P29275); assay: ADORA2B Receptor Binding Assay; details: radioligand binding, membrane stock
Chain of Adenosine A2B (ADORA2B) receptor (P29275 whole entry): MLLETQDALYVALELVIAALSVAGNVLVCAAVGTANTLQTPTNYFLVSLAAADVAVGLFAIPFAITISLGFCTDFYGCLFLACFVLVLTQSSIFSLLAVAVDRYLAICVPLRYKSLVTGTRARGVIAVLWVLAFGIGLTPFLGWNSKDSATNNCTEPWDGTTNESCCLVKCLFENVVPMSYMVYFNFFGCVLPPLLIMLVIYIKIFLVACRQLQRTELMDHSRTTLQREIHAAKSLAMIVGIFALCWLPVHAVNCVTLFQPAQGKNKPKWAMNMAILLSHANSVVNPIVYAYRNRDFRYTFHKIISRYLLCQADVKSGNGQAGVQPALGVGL
Procedure: ADORA2B Receptor Binding Assay
100 μL of Adenosine A2B membrane stock was dispensed into individual wells of an assay plate. 1 μL of each compound (test compounds, high control compound, low control compound) was then transferred into individual wells, followed by 100 μL of radio-labeled ligand. Plates were then sealed, and incubated at room temperature for 1 hour. Unifilter-96 GF/C filter plates were pre-soaked with 50 μL of 0.5% BSA per well for at least 30 min at room temperature. When binding assays were completed, reaction mixtures were filtered through GF/C plates using a Perkin Elmer Filtermate Harvester, and then each plate was washed 4× with cold wash buffer. Filter plates were then dried for 1 hour at 50° C. After drying, the bottom of the filter plate wells was sealed using Perkin Elmer Unifilter-96 backing seal tape. 50 μL of Perkin Elmer Microscint 20 cocktail was then added, and the top of the filter plate was then sealed using Perkin Elmer TopSeal-A sealing film. ^3H trapped on the filter was counted using a Perkin Elmer MicroBeta2 Reader. Data analysis was performed using GraphPad Prism 5 software, and the “Inhibition[% Control]” was calculated using the following equation: % Inh=(1−Background subtracted Assay value/Background subtracted HC value)*100.

Chain of Adenosine A2a (ADORA2A) receptor (P29274 whole entry): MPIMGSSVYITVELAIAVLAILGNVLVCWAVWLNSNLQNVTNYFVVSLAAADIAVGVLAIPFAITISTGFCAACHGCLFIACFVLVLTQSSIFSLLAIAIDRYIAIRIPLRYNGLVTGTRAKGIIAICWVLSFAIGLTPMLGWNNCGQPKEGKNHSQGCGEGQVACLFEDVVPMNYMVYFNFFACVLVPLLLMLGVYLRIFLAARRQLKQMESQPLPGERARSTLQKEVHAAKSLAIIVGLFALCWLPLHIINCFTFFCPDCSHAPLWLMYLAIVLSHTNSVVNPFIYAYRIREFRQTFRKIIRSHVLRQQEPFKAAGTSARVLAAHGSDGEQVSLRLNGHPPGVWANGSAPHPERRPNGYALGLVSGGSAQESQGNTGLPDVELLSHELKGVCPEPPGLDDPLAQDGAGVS

Row | SMILES | IC50 [1] [µM] | IC50 [2] [µM]
1 | CC(=O)Nc1cc2nc(C)nn2c(-c2cnc(C)o2)n1 [Compound 44, N-[2-methyl-5-(2-methyl-1,3-oxazol-5-yl)-[1,2,4]triazolo[1,5-c]pyrimidin-7-yl]acetamide] | 0.01 to 0.1 | 0.01 to 0.1
2 | CC(=O)Nc1cc2nc(C)nn2c(-c2ccc(C)o2)n1 [Compound 25, N-[2-methyl-5-(5-methylfuran-2-yl)-[1,2,4]triazolo[1,5-c]pyrimidin-7-yl]acetamide] | < 0.01 | < 0.01
3 | CC(=O)Nc1cc2nc(C3COC3)nn2c(-c2ccc(C)o2)n1 [Compound 109, N-[5-(5-methylfuran-2-yl)-2-(oxetan-3-yl)-[1,2,4]triazolo[1,5-c]pyrimidin-7-yl]acetamide] | < 0.01 | 0.01 to 0.1
4 | Cc1nc2cc(NC(=O)C(C)(C)C)nc(-c3ccc(C)o3)n2n1 [Compound 6, 2,2-dimethyl-N-[2-methyl-5-(5-methylfuran-2-yl)-[1,2,4]triazolo[1,5-c]pyrimidin-7-yl]propanamide] | < 0.01 | > 1
5 | Cc1ccc(-c2nc(N)c(Cl)c3nc(C(F)(F)F)nn23)o1 [Compound 42, 8-chloro-5-(5-methylfuran-2-yl)-2-(trifluoromethyl)-[1,2,4]triazolo[1,5-c]pyrimidin-7-amine] | < 0.01 | < 0.01
6 | Cc1nc2c(Cl)c(NC(=O)C3CC3)nc(-c3ccc(C)o3)n2n1 [Compound 15, N-[8-chloro-2-methyl-5-(5-methylfuran-2-yl)-[1,2,4]triazolo[1,5-c]pyrimidin-7-yl]cyclopropanecarboxamide] | < 0.01 | 0.1 to 1
7 | Cc1ccc(-c2nc(NC(=O)C3CC3)cc3nc(C4CCOC4)nn23)o1 (centres unmarked) [Compound 50, N-[5-(5-methylfuran-2-yl)-2-(oxolan-3-yl)-[1,2,4]triazolo[1,5-c]pyrimidin-7-yl]cyclopropanecarboxamide] | < 0.01 | 0.01 to 0.1
8 | Cc1nc2c(Br)c(N)nc(-c3ccc(C)o3)n2n1 [Compound 16, 8-bromo-2-methyl-5-(5-methylfuran-2-yl)-[1,2,4]triazolo[1,5-c]pyrimidin-7-amine] | < 0.01 | < 0.01
9 | Cc1nc2c(Cl)c(N)nc(-c3cccc(Cl)c3)n2n1 [Compound 78, 8-chloro-5-(3-chlorophenyl)-2-methyl-[1,2,4]triazolo[1,5-c]pyrimidin-7-amine] | < 0.01 | 0.01 to 0.1
10 | CNC(=O)Nc1cc2nc(C)nn2c(-c2ccco2)n1 [Compound 108, 1-[5-(furan-2-yl)-2-methyl-[1,2,4]triazolo[1,5-c]pyrimidin-7-yl]-3-methylurea] | < 0.01 | < 0.01
11 | Cc1nc2cc(NC(=O)C3CC3)nc(-c3ccco3)n2n1 [Compound 29, N-[5-(furan-2-yl)-2-methyl-[1,2,4]triazolo[1,5-c]pyrimidin-7-yl]cyclopropanecarboxamide] | < 0.01 | < 0.01
12 | Cc1nc2c3c(nc(-c4ccc(C)o4)n2n1)NC(=O)C3 [Compound 97, 4-methyl-7-(5-methylfuran-2-yl)-3,5,6,8,10-pentazatricyclo[7.3.0.0^2,6]dodeca-1(9),2,4,7-tetraen-11-one] | < 0.01 | 0.01 to 0.1
13 | CC(=O)Nc1cc2nc(C3CCC3)nn2c(-c2ccc(C)o2)n1 [Compound 63, N-[2-cyclobutyl-5-(5-methylfuran-2-yl)-[1,2,4]triazolo[1,5-c]pyrimidin-7-yl]acetamide] | < 0.01 | 0.01 to 0.1
14 | Cc1nc2c(Br)c(NC(=O)C3CC3)nc(-c3ccco3)n2n1 [Compound 31, N-[8-bromo-5-(furan-2-yl)-2-methyl-[1,2,4]triazolo[1,5-c]pyrimidin-7-yl]cyclopropanecarboxamide] | 0.01 to 0.1 | –
15 | Cc1nc2cc(NC(=O)[C@@H]3CCCN3)nc(-c3ccc(C)o3)n2n1 [Compound 9, (2S)-N-[2-methyl-5-(5-methylfuran-2-yl)-[1,2,4]triazolo[1,5-c]pyrimidin-7-yl]pyrrolidine-2-carboxamide] | 0.01 to 0.1 | –
16 | Cc1nc2cc(NC(=O)[C@H]3CCCN3)nc(-c3ccc(C)o3)n2n1 [Compound 17, (2R)-N-[2-methyl-5-(5-methylfuran-2-yl)-[1,2,4]triazolo[1,5-c]pyrimidin-7-yl]pyrrolidine-2-carboxamide] | < 0.01 | –

More lines, now with the values ahead:

Row | IC50 [1] [µM] | IC50 [2] [µM] | SMILES
17 | > 1 | > 1 | COc1ccc(-c2nc(NC(=O)OC(C)(C)C)cc3nc(C)nn23)cc1 [Compound 112, tert-butyl N-[5-(4-methoxyphenyl)-2-methyl-[1,2,4]triazolo[1,5-c]pyrimidin-7-yl]carbamate]
18 | > 1 | > 1 | CC(=O)Nc1cc2nc(C)nn2c(-c2ccc(S(=O)(=O)N(C)C)cc2)n1 [Compound 117, N-[5-[4-(dimethylsulfamoyl)phenyl]-2-methyl-[1,2,4]triazolo[1,5-c]pyrimidin-7-yl]acetamide]
19 | 0.01 to 0.1 | 0.01 to 0.1 | COc1ccc(-c2nc(NC(=O)C3CC3)cc3nc(C)nn23)cc1 [Compound 111, N-[5-(4-methoxyphenyl)-2-methyl-[1,2,4]triazolo[1,5-c]pyrimidin-7-yl]cyclopropanecarboxamide]
20 | < 0.01 | < 0.01 | Cc1ccc(-c2nc(NC(=O)C3CC3)cn3nc(CF)nc23)o1 [Compound 190, N-[2-(fluoromethyl)-8-(5-methylfuran-2-yl)-[1,2,4]triazolo[1,5-a]pyrazin-6-yl]cyclopropanecarboxamide]
21 | 0.1 to 1 | > 1 | Cc1nc2cc(NC(=O)OC(C)(C)C)nc(-c3ccc(S(=O)(=O)O)cc3)n2n1 [Compound 124, 4-[2-methyl-7-[(2-methylpropan-2-yl)oxycarbonylamino]-[1,2,4]triazolo[1,5-c]pyrimidin-5-yl]benzenesulfonic acid]
22 | < 0.01 | < 0.01 | Cc1ccc(-c2nc(NC(=O)C3CC3)cn3nc(C(C)C)nc23)o1 [Compound 173, N-[8-(5-methylfuran-2-yl)-2-propan-2-yl-[1,2,4]triazolo[1,5-a]pyrazin-6-yl]cyclopropanecarboxamide]
23 | 0.1 to 1 | > 1 | CC(=O)Nc1cc2nc(C3CNC3)nn2c(-c2ccc(C)o2)n1 [Compound 150, N-[2-(azetidin-3-yl)-5-(5-methylfuran-2-yl)-[1,2,4]triazolo[1,5-c]pyrimidin-7-yl]acetamide]
24 | < 0.01 | 0.01 to 0.1 | Cc1ccc(-c2nc3[nH]ncc3c3nc(C(C)C)nn23)o1 [Compound 121, 7-(5-methylfuran-2-yl)-4-propan-2-yl-3,5,6,8,10,11-hexazatricyclo[7.3.0.0^2,6]dodeca-1(9),2,4,7,11-pentaene]
25 | > 1 | > 1 | Cc1nc2c3cccnc3nc(-c3ccc(C)o3)n2n1 [Compound 136, 4-methyl-7-(5-methylfuran-2-yl)-3,5,6,8,10-pentazatricyclo[7.4.0.0^2,6]trideca-1(9),2,4,7,10,12-hexaene]
26 | < 0.01 | 0.01 to 0.1 | Cc1nc2cc(NC(=O)NCCN3CCCC3)nc(-c3ccco3)n2n1 [Compound 157, 1-[5-(furan-2-yl)-2-methyl-[1,2,4]triazolo[1,5-c]pyrimidin-7-yl]-3-(2-pyrrolidin-1-ylethyl)urea]
27 | < 0.01 | 0.01 to 0.1 | Cc1ccc(-c2nc(NC(=O)C3CC3)cn3cc(C(C)C)nc23)o1 [Compound 215, N-[8-(5-methylfuran-2-yl)-2-propan-2-ylimidazo[1,2-a]pyrazin-6-yl]cyclopropanecarboxamide]
28 | < 0.01 | < 0.01 | Cc1ccc(-c2nc(NC(=O)C3CC3)cn3ncnc23)o1 [Compound 167, N-[8-(5-methylfuran-2-yl)-[1,2,4]triazolo[1,5-a]pyrazin-6-yl]cyclopropanecarboxamide]
29 | > 1 | – | Cc1ccc(-c2nc(NC(=O)C3CC3)cn3cc(C(=O)O)nc23)o1 [Compound 194, 6-(cyclopropanecarbonylamino)-8-(5-methylfuran-2-yl)imidazo[1,2-a]pyrazine-2-carboxylic acid]
30 | 0.1 to 1 | – | Cc1ccc(-c2nc(N)cn3ccnc23)o1 [Compound 191, 8-(5-methylfuran-2-yl)imidazo[1,2-a]pyrazin-6-amine]
31 | 0.01 to 0.1 | – | CCOC(=O)c1cn2cc(NC(=O)C3CC3)nc(-c3ccc(C)o3)c2n1 [Compound 193, ethyl 6-(cyclopropanecarbonylamino)-8-(5-methylfuran-2-yl)imidazo[1,2-a]pyrazine-2-carboxylate]
